{"source": "ChEMBL document CHEMBL1671722", "about": "“Comparative in vitro activity profiles of novel bis-indole antibacterials against gram-positive and gram-negative clinical isolates” (Antimicrob Agents Chemother, 2010)", "key": {"Staphylococcus aureus [1]": {"system": "Staphylococcus aureus", "assay": "Antimicrobial activity against methicillin-susceptible Staphylococcus aureus by broth microdilution method", "type": "functional"}, "Staphylococcus aureus [2]": {"system": "Staphylococcus aureus", "assay": "Antimicrobial activity against methicillin-resistant Staphylococcus aureus by broth microdilution method", "type": "functional"}, "[3]": {"system": "Staphylococcus epidermidis", "assay": "Antimicrobial activity against methicillin-susceptible Staphylococcus epidermidis by broth microdilution method", "type": "functional"}, "[4]": {"system": "Staphylococcus epidermidis", "assay": "Antimicrobial activity against methicillin-resistant Staphylococcus epidermidis by broth microdilution method", "type": "functional"}, "Enterococcus faecalis [5]": {"system": "Enterococcus faecalis", "assay": "Antimicrobial activity against vancomycin-susceptible Enterococcus faecalis by broth microdilution method", "type": "functional"}, "Enterococcus faecalis [6]": {"system": "Enterococcus faecalis", "assay": "Antimicrobial activity against vancomycin-resistant Enterococcus faecalis by broth microdilution method", "type": "functional"}, "Enterococcus faecium [7]": {"system": "Enterococcus faecium", "assay": "Antimicrobial activity against vancomycin-susceptible Enterococcus faecium by broth microdilution method", "type": "functional"}, "Enterococcus faecium [8]": {"system": "Enterococcus faecium", "assay": "Antimicrobial activity against vancomycin-resistant Enterococcus faecium by broth microdilution method", "type": "functional"}, "Streptococcus pneumoniae [9]": {"system": "Streptococcus pneumoniae", "assay": "Antimicrobial activity against penicillin-susceptible Streptococcus pneumoniae by broth microdilution method", "type": "functional"}, "Streptococcus pneumoniae [10]": {"system": "Streptococcus pneumoniae", "assay": "Antimicrobial activity against penicillin-intermediate Streptococcus pneumoniae by broth microdilution method", "type": "functional"}, "Streptococcus pneumoniae [11]": {"system": "Streptococcus pneumoniae", "assay": "Antimicrobial activity against penicillin-resistant Streptococcus pneumoniae by broth microdilution method", "type": "functional"}, "Streptococcus agalactiae": {"system": "Streptococcus agalactiae", "assay": "Antimicrobial activity against Streptococcus agalactiae by broth microdilution method", "type": "functional"}, "Clostridioides difficile": {"system": "Clostridioides difficile", "assay": "Antimicrobial activity against Clostridium difficile by broth microdilution method", "type": "functional"}, "Escherichia coli": {"system": "Escherichia coli", "assay": "Antimicrobial activity against Escherichia coli by broth microdilution method", "type": "functional"}, "Klebsiella pneumoniae [12]": {"system": "Klebsiella pneumoniae", "assay": "Antimicrobial activity against Klebsiella pneumoniae by broth microdilution method", "type": "functional"}, "Klebsiella pneumoniae [13]": {"system": "Klebsiella pneumoniae", "assay": "Antimicrobial activity against ESBL-production Klebsiella pneumoniae by broth microdilution method", "type": "functional"}, "Serratia marcescens": {"system": "Serratia marcescens", "assay": "Antimicrobial activity against Serratia marcescens by broth microdilution method", "type": "functional"}, "Proteus mirabilis": {"system": "Proteus mirabilis", "assay": "Antimicrobial activity against Proteus mirabilis by broth microdilution method", "type": "functional"}, "Acinetobacter baumannii [14]": {"system": "Acinetobacter baumannii", "assay": "Antimicrobial activity against Acinetobacter baumannii by broth microdilution method", "type": "functional"}, "Acinetobacter baumannii [15]": {"system": "Acinetobacter baumannii", "assay": "Antimicrobial activity against multiple dug-resistant Acinetobacter baumannii by broth microdilution method", "type": "functional"}, "Pseudomonas aeruginosa": {"system": "Pseudomonas aeruginosa", "assay": "Antimicrobial activity against Pseudomonas aeruginosa by broth microdilution method", "type": "functional"}, "Burkholderia cepacia": {"system": "Burkholderia cepacia", "assay": "Antimicrobial activity against Burkholderia cepacia by broth microdilution method", "type": "functional"}, "Haemophilus influenzae": {"system": "Haemophilus influenzae", "assay": "Antimicrobial activity against Haemophilus influenzae by broth microdilution method", "type": "functional"}, "[16]": {"assay": "Cytotoxicity against HeLa cells after 3 days by MTS assay", "type": "cell-based", "details": "human"}, "[17]": {"assay": "Protein binding to serum", "type": "ADME, cell-free", "details": "read-out: PB (converted)"}}, "data": [{"smiles": "c1cc2cc(-c3ccc(-c4cc5ccc(C6=NCCN6)cc5[nH]4)cc3)[nH]c2cc1C1=NCCN1", "values": [{"measurement": "MIC50", "setting": "Staphylococcus aureus [1]", "value": 0.12, "unit": "mg/L"}, {"measurement": "MIC90", "setting": "Staphylococcus aureus [1]", "value": 0.25, "unit": "mg/L"}, {"measurement": "MIC", "setting": "Staphylococcus aureus [2]", "value": 0.06, "unit": "mg/L"}, {"measurement": "MIC50", "setting": "Staphylococcus aureus [2]", "value": 0.06, "unit": "mg/L"}, {"measurement": "MIC90", "setting": "Staphylococcus aureus [2]", "value": 0.12, "unit": "mg/L"}, {"measurement": "MIC50", "setting": "[3]", "value": 0.008, "unit": "mg/L"}, {"measurement": "MIC90", "setting": "[3]", "value": 0.03, "unit": "mg/L"}, {"measurement": "MIC50", "setting": "[4]", "value": 0.015, "unit": "mg/L"}, {"measurement": "MIC90", "setting": "[4]", "value": 0.03, "unit": "mg/L"}, {"measurement": "MIC50", "setting": "Enterococcus faecalis [5]", "value": 0.06, "unit": "mg/L"}, {"measurement": "MIC90", "setting": "Enterococcus faecalis [5]", "value": 0.06, "unit": "mg/L"}, {"measurement": "MIC50", "setting": "Enterococcus faecalis [6]", "value": 0.03, "unit": "mg/L"}, {"measurement": "MIC90", "setting": "Enterococcus faecalis [6]", "value": 0.06, "unit": "mg/L"}, {"measurement": "MIC50", "setting": "Enterococcus faecium [7]", "value": 0.004, "unit": "mg/L"}, {"measurement": "MIC90", "setting": "Enterococcus faecium [7]", "value": 0.015, "unit": "mg/L"}, {"measurement": "MIC50", "setting": "Enterococcus faecium [8]", "value": 0.004, "unit": "mg/L"}, {"measurement": "MIC90", "setting": "Enterococcus faecium [8]", "value": 0.004, "unit": "mg/L"}, {"measurement": "MIC50", "setting": "Streptococcus pneumoniae [9]", "value": 0.015, "unit": "mg/L"}, {"measurement": "MIC90", "setting": "Streptococcus pneumoniae [9]", "value": 0.03, "unit": "mg/L"}, {"measurement": "MIC50", "setting": "Streptococcus pneumoniae [10]", "value": 0.015, "unit": "mg/L"}, {"measurement": "MIC90", "setting": "Streptococcus pneumoniae [10]", "value": 0.12, "unit": "mg/L"}, {"measurement": "MIC", "setting": "Streptococcus pneumoniae [11]", "value": 0.03, "unit": "mg/L"}, {"measurement": "MIC50", "setting": "Streptococcus pneumoniae [11]", "value": 0.03, "unit": "mg/L"}, {"measurement": "MIC90", "setting": "Streptococcus pneumoniae [11]", "value": 0.06, "unit": "mg/L"}, {"measurement": "MIC", "setting": "Streptococcus agalactiae", "value": 0.03, "unit": "mg/L"}, {"measurement": "MIC50", "setting": "Streptococcus agalactiae", "value": 0.03, "unit": "mg/L"}, {"measurement": "MIC90", "setting": "Streptococcus agalactiae", "value": 0.03, "unit": "mg/L"}, {"measurement": "MIC50", "setting": "Clostridioides difficile", "value": 0.06, "unit": "mg/L"}, {"measurement": "MIC90", "setting": "Clostridioides difficile", "value": 0.12, "unit": "mg/L"}, {"measurement": "MIC50", "setting": "Escherichia coli", "value": 0.12, "unit": "mg/L"}, {"measurement": "MIC90", "setting": "Escherichia coli", "value": 0.5, "unit": "mg/L"}, {"measurement": "MIC50", "setting": "Klebsiella pneumoniae [12]", "value": 2, "unit": "mg/L"}, {"measurement": "MIC90", "setting": "Klebsiella pneumoniae [12]", "value": 8, "unit": "mg/L"}, {"measurement": "MIC50", "setting": "Klebsiella pneumoniae [13]", "value": 1, "unit": "mg/L"}, {"measurement": "MIC90", "setting": "Klebsiella pneumoniae [13]", "value": "> 16", "unit": "mg/L"}, {"measurement": "MIC50", "setting": "Serratia marcescens", "value": 1, "unit": "mg/L"}, {"measurement": "MIC90", "setting": "Serratia marcescens", "value": 2, "unit": "mg/L"}, {"measurement": "MIC50", "setting": "Proteus mirabilis", "value": "> 16", "unit": "mg/L"}, {"measurement": "MIC90", "setting": "Proteus mirabilis", "value": "> 16", "unit": "mg/L"}, {"measurement": "MIC50", "setting": "Acinetobacter baumannii [14]", "value": 8, "unit": "mg/L"}, {"measurement": "MIC90", "setting": "Acinetobacter baumannii [14]", "value": "> 16", "unit": "mg/L"}, {"measurement": "MIC50", "setting": "Acinetobacter baumannii [15]", "value": "> 16", "unit": "mg/L"}, {"measurement": "MIC50", "setting": "Pseudomonas aeruginosa", "value": "> 16", "unit": "mg/L"}, {"measurement": "MIC90", "setting": "Pseudomonas aeruginosa", "value": "> 16", "unit": "mg/L"}, {"measurement": "MIC", "setting": "Burkholderia cepacia", "value": "≤ 0.015", "unit": "mg/L"}, {"measurement": "MIC50", "setting": "Burkholderia cepacia", "value": "≤ 0.015", "unit": "mg/L"}, {"measurement": "MIC90", "setting": "Burkholderia cepacia", "value": 0.06, "unit": "mg/L"}, {"measurement": "MIC50", "setting": "Haemophilus influenzae", "value": 4, "unit": "mg/L"}, {"measurement": "MIC90", "setting": "Haemophilus influenzae", "value": "> 16", "unit": "mg/L"}, {"measurement": "CC50 at 72 h", "setting": "[16]", "value": 33, "unit": "mg/L"}, {"measurement": "fraction unbound", "setting": "[17]", "value": 0.75}]}]}
